Legend:
[1] = mn = molality of the nth substance listed, in mol/kg; settings: 99.6 kPa, Liquid, Vibrating tube method
[2] = 99.6 kPa, Liquid, Vibrating tube method

CCN1C(=O)N(C)[C@@H]2[C@H]1N(C)C(=O)N2CC + [2H]O[2H]
mass density [kg/m3], [1]
Settings | m1 = 0.02067 | m1 = 0.03855 | m1 = 0.06093 | m1 = 0.08301 | m1 = 0.09921 | m1 = 0.1206 | m1 = 0.1402 | m1 = 0.159 | m1 = 0.1743
278.15 K | 1105.97 | 1106.36 | 1106.84 | 1107.32 | 1107.67 | 1108.14 | 1108.56 | 1108.97 | 1109.3
288.15 K | 1106.17 | 1106.51 | 1106.94 | 1107.36 | 1107.67 | 1108.07 | 1108.44 | 1108.8 | 1109.08
298.15 K | 1104.7 | 1105 | 1105.38 | 1105.75 | 1106.03 | 1106.39 | 1106.71 | 1107.03 | 1107.28
308.15 K | 1101.97 | 1102.24 | 1102.58 | 1102.91 | 1103.16 | 1103.47 | 1103.76 | 1104.04 | 1104.28
318.15 K | 1098.15 | 1098.4 | 1098.71 | 1099.01 | 1099.23 | 1099.52 | 1099.78 | 1100.04 | 1100.24

[2H]O[2H] [water-d2]
[2]
Settings | mass density [kg/m3]
278.15 K | 1105.52
288.15 K | 1105.78
298.15 K | 1104.34
308.15 K | 1101.65
318.15 K | 1097.87

CCN1C(=O)N(C)[C@@H]2[C@H]1N(C)C(=O)N2CC + O
mass density [kg/m3], [1]
Settings | m1 = 0.01976 | m1 = 0.04272 | m1 = 0.06009 | m1 = 0.07765 | m1 = 0.1094 | m1 = 0.136 | m1 = 0.155 | m1 = 0.1749 | m1 = 0.1935
278.15 K | 1000.71 | 1001.58 | 1002.23 | 1002.88 | 1004.07 | 1005.05 | 1005.75 | 1006.48 | 1007.16
288.15 K | 999.821 | 1000.65 | 1001.28 | 1001.91 | 1003.04 | 1003.98 | 1004.64 | 1005.34 | 1005.98
298.15 K | 997.745 | 998.551 | 999.157 | 999.764 | 1000.85 | 1001.76 | 1002.4 | 1003.07 | 1003.68
308.15 K | 994.713 | 995.494 | 996.08 | 996.672 | 997.724 | 998.597 | 999.219 | 999.861 | 1000.46
318.15 K | 990.876 | 991.636 | 992.207 | 992.779 | 993.803 | 994.654 | 995.256 | 995.879 | 996.461

[2H]O[2H] [water-d2] + CCN1C(=O)N(C)[C@@H]2[C@H]1N(C)C(=O)N2CC
[1], m2 = 0
Settings | mass density [kg/m3]
278.15 K | 1105.52
288.15 K | 1105.78
298.15 K | 1104.34
308.15 K | 1101.65
318.15 K | 1097.87

O [water] + CCN1C(=O)N(C)[C@@H]2[C@H]1N(C)C(=O)N2CC
Settings | mass density [kg/m3]
[1], 278.15 K, m2 = 0 | 999.964

From the NIST ThermoML archive (doi:10.1016/j.jct.2017.07.034)
